The results in this text go back to patent US20050032873A1, “3-Amino chroman and 2-amino tetralin derivatives” (Wyeth, priority 2003, published 2005).

Assay [1] addresses T1, cloned human 5-HT1A receptors (Homo sapiens, UniProt P08908).
T1 construct: expressed in transfected cells
T1 sequence (P08908 1-422): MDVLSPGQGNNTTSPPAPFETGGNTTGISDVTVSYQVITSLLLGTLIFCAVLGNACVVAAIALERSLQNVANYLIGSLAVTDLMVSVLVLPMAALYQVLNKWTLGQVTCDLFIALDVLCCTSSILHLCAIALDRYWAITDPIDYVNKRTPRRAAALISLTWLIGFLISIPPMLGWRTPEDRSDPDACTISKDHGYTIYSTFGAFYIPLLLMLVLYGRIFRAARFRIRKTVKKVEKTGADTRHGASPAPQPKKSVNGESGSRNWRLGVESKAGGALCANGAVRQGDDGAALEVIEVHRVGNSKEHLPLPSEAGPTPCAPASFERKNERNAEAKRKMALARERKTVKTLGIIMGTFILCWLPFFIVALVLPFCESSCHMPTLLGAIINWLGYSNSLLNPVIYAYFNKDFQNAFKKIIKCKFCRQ
The assay can be described thus: 35S-GTPγS binding assay, 5-HT1A function. It is filed as biochemical. To be noted: for EC50: agonist potency; for IC50: antagonist potency, reversal of 8-OH-DPAT, read-out: 5-HT1A Function GTPγS IC50. Background: Binding of GTPγS marks nucleotide exchange on a G protein.

Assay [2] has as its target T2, serotonin transporter (Rattus norvegicus, UniProt P31652).
T2 construct: displace ^3H-paroxetine from male rat cortical membranes; from tissue; host or cells: male rat cortical membranes
Kind of assay: 5-HT transporter affinity: displacement of 3H-paroxetine from male rat cortical membranes. It is filed as binding. To be noted: displacement of 3H-paroxetine; male rat cortical membranes; read-out: 5-HT Transporter Affinity Ki.

The target of assay [3] is T3, 5-HT1A receptor (Homo sapiens, UniProt P08908).
T3 sequence (P08908 1-422): T1 sequence (P08908 1-422)
Kind of assay: 5-HT1A receptor affinity: displacement of [3H] 8-OH-DPAT. On the set-up: expressed in transfected cells. It is filed as binding. The settings on record: displacement of [3H] 8-OH-DPAT; CHO cells stably transfected with human 5-HT1A receptors; read-out: 5-HT1A Receptor Affinity Ki. On the technique in general: In a radioligand displacement assay an active substance lowers the binding of a labelled ligand.

Assay [4] addresses T3, 5-HT1A receptor. The assay can be described thus: cAMP accumulation assay, 5-HT1A function. To be noted: for EC50: cells marked EC50 (agonist); for Emax / 5-HT1A Function cAMP (Emax): in brackets after EC50 or IC50; for Emax: read-out: 5-HT1A Function cAMP (Emax); for IC50: cells marked IC50 (antagonist), read-out: 5-HT1A Function cAMP IC50. It is filed as cell-based. For orientation: Cyclic AMP is a second messenger, typically raised through Gs and lowered through Gi signalling.
Source text: The agonist or antagonist activity at 5-HT1A receptors was established by using two different assays. […] Agonists produce an increase in binding whereas antagonists produce no increase but rather reverse the effects of the standard agonist 8-OH-DPAT. The test compound's maximum stimulatory effect is represented as the Emax, while its potency is defined by the EC50. The test compound's maximum inhibitory effect is represented as the Imax, while its potency is defined by the IC50. The second assay measured cAMP accumulation upon binding of the ligand to the 5-HT1A receptor. […] The test compound's maximum stimulatory or inhibitory effect is represented as the Emax while its potency is defined by either IC50 for an antagonist or EC50 for an agonist. [^3H]-8-OH-DPAT was used to determine maximum agonist or antagonist response in both functional assays.

[5] abbreviates: maximum stimulatory effect, in brackets after EC50, read-out: 5-HT1A Function GTPγS (Emax).
Setting [6] is: maximum inhibitory effect, in brackets after IC50, read-out: 5-HT1A Function GTPγS (Imax).
The mark [7] stands for this setting: maximum inhibitory effect, in brackets after IC50.

Read-outs that look alike come from different tables or passages of the source.

T2 sequence (P31652 whole entry): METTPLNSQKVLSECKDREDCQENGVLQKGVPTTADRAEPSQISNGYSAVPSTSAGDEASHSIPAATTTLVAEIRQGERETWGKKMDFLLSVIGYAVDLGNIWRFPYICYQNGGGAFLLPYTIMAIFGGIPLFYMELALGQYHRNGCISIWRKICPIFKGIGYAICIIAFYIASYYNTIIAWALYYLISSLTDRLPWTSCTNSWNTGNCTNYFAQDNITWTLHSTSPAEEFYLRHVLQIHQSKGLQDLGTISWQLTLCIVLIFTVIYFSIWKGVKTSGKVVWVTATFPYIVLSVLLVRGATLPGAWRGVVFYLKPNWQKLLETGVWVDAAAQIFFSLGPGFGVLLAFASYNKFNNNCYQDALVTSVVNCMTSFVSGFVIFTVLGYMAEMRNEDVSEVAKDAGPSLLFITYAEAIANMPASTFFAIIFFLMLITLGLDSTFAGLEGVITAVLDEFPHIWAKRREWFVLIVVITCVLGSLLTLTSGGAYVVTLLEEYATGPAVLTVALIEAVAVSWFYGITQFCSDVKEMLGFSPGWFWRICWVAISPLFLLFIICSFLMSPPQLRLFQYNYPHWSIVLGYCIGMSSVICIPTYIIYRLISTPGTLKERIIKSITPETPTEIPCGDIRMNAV

As for `CCCN(CCCc1c[nH]c2c(Cl)cccc12)C1COc2c(F)ccc(C(N)=O)c2C1` (centres unmarked) [Compound 113, 3-[[3-(7-chloro-1H-indol-3-yl)propyl](propyl)amino]-8-fluorochromane-5-carboxamide], the half-maximal effective concentration (EC50) (as a rule, the concentration at which the effect is half-maximal) is 87.2 nM in assay [1] and 16 nM in assay [4]. For the same compound, the Emax in assay [1] (setting [5]) came to 56%; in assay [4] it was 91%. For the same compound, the inhibition constant Ki (usually a dissociation constant, usually derived from enzyme kinetics or from competition with a known ligand) in assay [2] worked out at 51 nM; in assay [3] it was 2.02 nM.

Take `COc1cccc2c1CC(N(CCCc1c[nH]c3ccc(F)cc13)C1CC1)CO2` (centres unmarked) [Compound 41, N-cyclopropyl-N-[3-(5-fluoro-1H-indol-3-yl)propyl]-N-(5-methoxy-3,4-dihydro-2H-chromen-3-yl)amine]: the concentration for a half-maximal effect (EC50) in assay [1] stood at 3460 nM; in assay [4], 162 nM. Moreover, the Emax in assay [1] (setting [5]) stood at 84%; in assay [4], 78.5%. For the same compound, the Ki in assay [2] came out at 148 nM; in assay [3], 57.3 nM.

As to `COC(=O)c1cccc2c1CC(NCCCc1c[nH]c3c(F)cc(F)cc13)CO2` (centres unmarked) [Compound 135, Methyl 3-{[3-(5,7-difluoro-1H-indol-3-yl)propyl]amino}chromane-5-carboxylate], the concentration for a half-maximal effect (EC50) was determined as 441 nM in assay [1] and 274 nM in assay [4]. Moreover, the Emax in assay [1] (setting [5]) turned out to be 100%; in assay [4] it was 98%. Further, the Ki worked out at 58 nM in assay [2] and 19.9 nM in assay [3].

In the case of `CCN(CCCc1c[nH]c2c(Cl)cccc12)C1COc2c(F)ccc(C(N)=O)c2C1` (centres unmarked) [Compound 110, 3-[[3-(7-chloro-1H-indol-3-yl)propyl](ethyl)amino]-8-fluorochromane-5-carboxamide], the EC50 in assay [1] is 244 nM; in assay [4], 36.4 nM. Also, in assay [1], the IC50 (usually the point on the concentration scale where inhibition reaches its midpoint) was determined as 196 nM. Moreover, the results for the Emax in assay [1] (setting [6]), in assay [1] (setting [5]) and in assay [4] were 59%, 61% and 75%, respectively. Also, the inhibition constant (Ki) amounted to 4.59 nM in assay [2] and 6.45 nM in assay [3].

For `COc1cccc2c1CC(N(CCCc1c[nH]c3ccc(F)cc13)CC1CC1)CO2` (centres unmarked) [Compound 37, N-(cyclopropylmethyl)-N-[3-(5-fluoro-1H-indol-3-yl)propyl]-N-(5-methoxy-3,4-dihydro-2H-chromen-3-yl)amine], the 50% effective concentration (EC50) stood at 146 nM in assay [1] and 14.1 nM in assay [4]. Besides, the figures for the Emax in assay [1] (setting [5]) and in assay [4] were 88% and 91%, respectively. The figures for the inhibitory constant (Ki) in assay [2] and in assay [3] were 4.3 nM and 1.68 nM, respectively.

Consider “[3-(5-fluoro-1H-indol-3-yl)-propyl]-(8-fluoro-5-methoxychroman-3-yl)propylamine [Compound 26]”, for which the concentration giving a half-maximal response (EC50) amounted to 210 nM in assay [1] and 23.6 nM in assay [4]. For the same compound, in assay [1] (maximum stimulatory effect, in brackets after EC50), the 5-HT1A Function GTPγS (Emax) came to 79.5%. In addition, the results for the Ki in assay [2] and in assay [3] were 12.5 nM and 19.4 nM, respectively. This compound had a 5-HT1A Function cAMP (Emax) in assay [4] of 83.5%.

As to `CCCN(CCCc1c[nH]c2c(F)cc(F)cc12)C1COc2c(C(N)=O)ccc(F)c2C1` (centres unmarked) [Compound 129, 3-[[3-(5,7-difluoro-1H-indol-3-yl)propyl](propyl)amino]-5-fluorochromane-8-carboxamide], the 50% effective concentration (EC50) in assay [1] was determined as 9330 nM; in assay [4] it was 707 nM. Besides, the Emax in assay [1] (setting [5]) was 100%; in assay [4] it was 75.5%. The inhibition constant Ki in assay [2] came out at 6.8 nM; in assay [3], 170 nM.

In the case of `COc1cccc2c1C[C@@H](N(CCCc1c[nH]c3ccc(F)cc13)C1CCC1)CO2` [Compound 35, (3R)-N-cyclobutyl-N-[3-(5-fluoro-1H-indol-3-yl)propyl]-5-methoxy-3,4-dihydro-2H-chromen-3-amine], the results for the half-inhibitory concentration (IC50) in assay [1] and in assay [4] were 489 nM and 23.4 nM, respectively. For the same compound, the Emax was 80% in assay [1] (setting [6]) and 0% in assay [4]. Moreover, the figures for the Ki in assay [2] and in assay [3] were 41 nM and 2.14 nM, respectively.

`CCCN(CCCc1csc2ccc(F)cc12)C1COc2cccc(OC)c2C1` (centres unmarked) [Compound 19, N-[3-(5-fluoro-1-benzothien-3-yl)propyl]-5-methoxy-N-propylchroman-3-amine]: the EC50 was found to be 317 nM in assay [1] and 81 nM in assay [4]. In addition, the Emax in assay [1] (setting [5]) turned out to be 100%; in assay [4] it was 86.5%. Further, the Ki in assay [2] amounted to 405 nM; in assay [3] it was 16 nM.

Regarding `CCCN(CCCc1c[nH]c2ccc(F)cc12)[C@@H]1COc2c(F)ccc(OC)c2C1` [Compound 27, (3S)-8-fluoro-N-[3-(5-fluoro-1H-indol-3-yl)propyl]-5-methoxy-N-propylchroman-3-amine], the half-maximal effective concentration (EC50) in assay [1] turned out to be 116 nM; in assay [4] it was 16.4 nM. The Emax in assay [1] (setting [5]) is 97%; in assay [4] it was 88.5%. The inhibition constant Ki in assay [2] amounted to 13.5 nM; in assay [3], 12.6 nM.

Turning to `N#Cc1ccc2[nH]cc(CCCN(CC3CC3)[C@H]3COc4c(F)ccc(C(N)=O)c4C3)c2c1` [Compound 98b, (3R)-3-[[3-(5-cyano-1H-indol-3-yl)propyl](cyclopropylmethyl)amino]-8-fluorochromane-5-carboxamide], the figures for the IC50 in assay [1] and in assay [4] were 456 nM and 162 nM, respectively. In addition, the Emax in assay [1] (setting [6]) turned out to be 99%; in assay [4], 0%. Besides, the figures for the Ki in assay [2] and in assay [3] were 5.5 nM and 6.8 nM, respectively.

Regarding `O=C(NC1CC1)c1ccc(F)c2c1CC(N(CCCc1c[nH]c3ccc(F)cc13)C1CCC1)CO2` (centres unmarked) [Compound 64, 3-{cyclobutyl[3-(5-fluoro-1H-indol-3-yl)propyl]amino}-N-cyclopropyl-8-fluorochromane-5-carboxamide], the IC50 in assay [1] is 395 nM; in assay [4] it was 288 nM. In addition, the Emax turned out to be 90% in assay [1] (setting [6]) and 0% in assay [4]. Besides, the inhibitory constant (Ki) in assay [2] is 4.89 nM; in assay [3] it was 19.2 nM.

For the compound `COc1cccc2c1CC(N(CCCc1c[nH]c3ccc(F)cc13)C1CCCC1)CO2` (centres unmarked) [Compound 39, N-cyclopentyl-N-[3-(5-fluoro-1H-indol-3-yl)propyl]-N-(5-methoxy-3,4-dihydro-2H-chromen-3-yl)amine], the EC50 is 5840 nM in assay [1] and 108 nM in assay [4]. Also, the figures for the Emax in assay [1] (setting [5]) and in assay [4] were 100% and 70.5%, respectively. The Ki in assay [2] was found to be 69 nM; in assay [3], 36.2 nM.

Turning to `CCCN(C(C)CCCc1c[nH]c2ccc(F)cc12)C1COc2c(F)ccc(C(N)=O)c2C1` (single isomer, unassigned; (-)) [Compound 14b, (−)-8-fluoro-3-[[4-(5-fluoro-1H-indol-3-yl)-1-methylbutyl](propyl)amino]chromane-5-carboxamide], the values for the IC50 in assay [1] and in assay [4] were 477 nM and 110 nM, respectively. For the same compound, the 5-HT1A Function GTPγS (Imax) in assay [1] (setting [7]) stood at 100%. Also, the inhibitory constant (Ki) in assay [2] amounted to 9.5 nM; in assay [3], 1.88 nM. Moreover, the 5-HT1A Function cAMP (Emax) in assay [4] was found to be 0%.

Consider `COc1cccc2c1CC(N(CCCc1c[nH]c3ccccc13)CC1CC1)CO2` (centres unmarked) [Compound 43, N-(cyclopropylmethyl)-N-[3-(1H-indol-3-yl)propyl]-N-(5-methoxy-3,4-dihydro-2H-chromen-3-yl)amine], for which the EC50 amounted to 51.3 nM in assay [1] and 10.8 nM in assay [4]. In addition, the Emax in assay [1] (setting [5]) was found to be 100%; in assay [4], 91.5%. Further, the figures for the Ki in assay [2] and in assay [3] were 40.9 nM and 1.02 nM, respectively.

With `NC(=O)c1ccc(F)c2c1CC(N(CCCc1c[nH]c3c(F)cc(F)cc13)C1CCC1)CO2` (single isomer, unassigned; (-)) [Compound 9a, (−)-3-{cyclobutyl[3-(5,7-difluoro-1H-indol-3-yl)propyl]amino}-8-fluorochromane-5-carboxamide], the 50% inhibitory concentration (IC50) in assay [1] is 207 nM; in assay [4] it was 61.1 nM. The compound also showed a 5-HT1A Function GTPγS (Imax) in assay [1] (setting [7]) of 100%. Besides, the Ki was found to be 3.34 nM in assay [2] and 1.73 nM in assay [3]. For the same compound, the Emax in assay [4] turned out to be 0%.

As for `CNC(=O)c1ccc(F)c2c1CC(N(CCc1c[nH]c3ccc(F)cc13)C1CCC1)CO2` (centres unmarked) [Compound 87, 3-{cyclobutyl[2-(5-fluoro-1H-indol-3-yl)ethyl]amino}-8-fluoro-N-methylchromane-5-carboxamide], the values for the half-maximal inhibitory concentration (IC50) in assay [1] and in assay [4] were 513 nM and 172 nM, respectively. Moreover, the Emax was 100% in assay [1] (setting [6]) and 0% in assay [4]. Further, the Ki in assay [2] was 26.5 nM; in assay [3] it was 7.01 nM.

Regarding `NC(=O)c1ccc(F)c2c1CC(N(CCCc1c[nH]c3ccc(Cl)cc13)CC1CC1)CO2` (centres unmarked) [Compound 118, 3-[[3-(5-chloro-1H-indol-3-yl)propyl](cyclopropylmethyl)amino]-8-fluorochromane-5-carboxamide], the concentration for half-maximal inhibition (IC50) in assay [1] came out at 134 nM; in assay [4], 168 nM. The Emax in assay [1] (setting [6]) was determined as 69%; in assay [4], 0%. Moreover, the Ki in assay [2] was 41.4 nM; in assay [3], 1.49 nM.
